According to ChEMBL document CHEMBL1201862, “PubChem BioAssay data set” (2004):
Blank lines part the entries; values can stand above or below the compound they belong to. Activity calls are given as the source filed them.

What was measured:
[1] = Luminescence Cell-Based Dose Retest to Confirm Inhibitors of Cancer Stem Cells. [Related pubchem assays (depositor defined):AID2717, AID2721]; type: functional; settings: Homo sapiens
[2] = target: Protein disulfide-isomerase (Homo sapiens, UniProt P07237); experiment: inhibition of PDI-driven insulin aggregation – biochemical, turbidity, absorbance, cherry-picked samples, dose response (AID 602350); type: functional
Sequence of Protein disulfide-isomerase (P07237 whole entry): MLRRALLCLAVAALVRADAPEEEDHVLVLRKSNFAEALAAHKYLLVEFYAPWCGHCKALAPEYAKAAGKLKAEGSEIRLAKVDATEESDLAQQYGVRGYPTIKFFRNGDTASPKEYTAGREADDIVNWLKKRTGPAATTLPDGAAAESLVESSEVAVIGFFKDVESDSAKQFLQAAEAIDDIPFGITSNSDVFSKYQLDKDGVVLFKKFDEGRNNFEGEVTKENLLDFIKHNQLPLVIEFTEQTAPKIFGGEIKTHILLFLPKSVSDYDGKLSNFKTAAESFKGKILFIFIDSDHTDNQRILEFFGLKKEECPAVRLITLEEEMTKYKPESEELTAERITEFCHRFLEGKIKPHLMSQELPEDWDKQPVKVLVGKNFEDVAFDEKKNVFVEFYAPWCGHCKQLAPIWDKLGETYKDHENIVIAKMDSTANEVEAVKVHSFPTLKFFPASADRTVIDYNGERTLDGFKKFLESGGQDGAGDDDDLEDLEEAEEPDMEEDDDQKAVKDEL

[3] = system: INS1; experiment: INS-1E survival protection against cytokine death – cell-based, luminescence, retest, dose response (AID 449756); type: functional; settings: Rattus norvegicus;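 also: cell death triggered by IL-1 beta plus TNF-alpha plus IFN-gamma mixture; protective hits raise ATP signal compared with cytokine alone wells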
[4] = NIH3T3 cell viability loss – ATP luminescence, mouse fibroblasts, counter-screen, dose response (AID 2010); type: functional, cell-based;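 also: cells exposed to compound for about 90 hours before reading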
[5] = system: Jurkat; experiment: blockers of NF-kB activation in T cells – Jurkat, luciferase reporter, luminescence, B- and T-cell, dose response (AID 489004); type: functional, cell-based; settings: Homo sapiens;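 also: NF-kB luciferase reporter Jurkat cells stimulated with PMA plus ionomycin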
[6] = target: T1, High affinity choline transporter 1 (Homo sapiens, UniProt Q9GZV3); experiment: human choline transporter potentiators, potency – cell-based, 10-point CRC, membrane potential dye, dose response (AID 602376); type: functional
T1 sequence (Q9GZV3 whole entry): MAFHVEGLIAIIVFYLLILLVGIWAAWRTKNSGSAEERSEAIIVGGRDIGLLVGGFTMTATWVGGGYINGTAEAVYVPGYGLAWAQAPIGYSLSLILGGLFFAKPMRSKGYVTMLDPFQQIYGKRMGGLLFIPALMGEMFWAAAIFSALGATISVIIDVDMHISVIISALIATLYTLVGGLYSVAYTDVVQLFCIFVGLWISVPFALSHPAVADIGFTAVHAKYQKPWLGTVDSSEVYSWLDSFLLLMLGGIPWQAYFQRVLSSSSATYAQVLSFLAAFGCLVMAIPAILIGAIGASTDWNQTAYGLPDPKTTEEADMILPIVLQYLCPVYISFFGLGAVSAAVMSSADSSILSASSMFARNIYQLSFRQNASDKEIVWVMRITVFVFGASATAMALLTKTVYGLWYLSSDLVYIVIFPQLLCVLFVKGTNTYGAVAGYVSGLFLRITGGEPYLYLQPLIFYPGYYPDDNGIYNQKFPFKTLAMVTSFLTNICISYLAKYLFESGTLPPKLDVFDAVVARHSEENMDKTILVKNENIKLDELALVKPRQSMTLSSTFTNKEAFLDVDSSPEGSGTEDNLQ

[7] = Trypanosoma cruzi growth suppression in host cells – NIH3T3 host cells, beta-gal luminescence, confirmation (AID 2044); type: functional, cell-based;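 also: intracellular parasites grown in NIH/3T3 mouse fibroblasts as host cells; luminescent beta-galactosidase reporter signal from transgenic T. cruzi replicating inside host cells; inhibitors lower the luminescence signal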
[8] = HEK-293T viability loss, compound-treated – cell-based, uHTS hits, cytotoxicity control for B/T-cell NF-kB inhibitor project, dose response (AID 489019); type: functional;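 also: IC50 reflects cytotoxicity as loss of cell viability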

Structure (SMILES): Oc1ccc(/C=C/c2nc(-c3ccccc3O)n(-c3ccccc3)n2)cc1
- AC50 [1]: 6.8 µM (active)
- AC50 [2]: 18.8 µM (active)

- AC50 [2]: 15.5 µM (active)
Structure (SMILES): COc1ccc(C2c3ccc(O)cc3Oc3ncn(CCN4CCOCC4)c(=N)c32)cc1OC (centres undefined)

Structure (SMILES): COc1ccc(-c2cn3c([n+]2-c2ccc(C)cc2)CCCCC3)cc1
- AC50 [3]: 0.348 µM (active)
- EC50 [4]: > 60 µM (not active)
- IC50 [5]: > 80 µM (inactive)
- EC50 [6]: 9.77 µM (active)
- EC50 [7]: 0.171 µM (active)
- IC50 [8]: > 80 µM (inactive)
